{
  "source": "ChEMBL document CHEMBL5316298",
  "about": "“Discovery of Amphiphilic Xanthohumol Derivatives as Membrane-Targeting Antimicrobials against Methicillin-Resistant Staphylococcus aureus” (J Med Chem, 2023)",
  "key": {"[1]": {"system": "Staphylococcus aureus", "experiment": "Antibacterial activity against methicillin-resistant Staphylococcus aureus clinical isolate 1 incubated for 16 to 18 hrs by CLSI-based microbroth dilution method", "format": "functional", "conditions": "time 16-18 hrs"}, "[2]": {"system": "Staphylococcus aureus", "experiment": "Antibacterial activity against methicillin-resistant Staphylococcus aureus clinical isolate 3 incubated for 16 to 18 hrs by CLSI-based microbroth dilution method", "format": "functional", "conditions": "time 16-18 hrs"}, "[3]": {"system": "Staphylococcus aureus", "experiment": "Antibacterial activity against methicillin-resistant Staphylococcus aureus clinical isolate 5 incubated for 16 to 18 hrs by CLSI-based microbroth dilution method", "format": "functional", "conditions": "time 16-18 hrs"}, "[4]": {"system": "Staphylococcus aureus", "experiment": "Antibacterial activity against methicillin-resistant Staphylococcus aureus clinical isolate 6 incubated for 16 to 18 hrs by CLSI-based microbroth dilution method", "format": "functional", "conditions": "time 16-18 hrs"}, "[5]": {"system": "Staphylococcus aureus", "experiment": "Antibacterial activity against methicillin-resistant Staphylococcus aureus clinical isolate 7 incubated for 16 to 18 hrs by CLSI-based microbroth dilution method", "format": "functional", "conditions": "time 16-18 hrs"}, "[6]": {"system": "Staphylococcus aureus", "experiment": "Antibacterial activity against methicillin-resistant Staphylococcus aureus clinical isolate 8 incubated for 16 to 18 hrs by CLSI-based microbroth dilution method", "format": "functional", "conditions": "time 16-18 hrs"}, "[7]": {"system": "Staphylococcus aureus", "experiment": "Antibacterial activity against methicillin-resistant Staphylococcus aureus clinical isolate 9 incubated for 16 to 18 hrs by CLSI-based microbroth dilution method", "format": "functional", "conditions": "time 16-18 hrs"}, "[8]": {"experiment": "Hemolytic activity in sheep erythrocytes incubated for 1 hr by absorbance based analysis", "format": "toxicity, cell-based, Ovis aries, Erythrocyte"}, "[9]": {"system": "Staphylococcus aureus", "experiment": "Bactericidal activity against Staphylococcus aureus ATCC 29213 at 8 times MIC measured at 1 hr by time kill assay", "format": "functional, organism-based"}, "[10]": {"system": "Staphylococcus aureus", "experiment": "Bactericidal activity against methicillin-resistant Staphylococcus aureus 3 at 8 times MIC measured at 2 hrs by plate colony counting method", "format": "functional, organism-based"}, "[11]": {"system": "Staphylococcus aureus", "experiment": "Bactericidal activity against methicillin-resistant Staphylococcus aureus 3 at 4 times MIC by plate colony counting method", "format": "functional, organism-based", "conditions": "time 0-8 hrs, TDE = time-dependent effect"}, "[12]": {"system": "Staphylococcus aureus", "experiment": "Induction of drug resistance in Staphylococcus aureus ATCC 29213 assessed as increase in MIC at 0.5 times MIC measured for 20 passages", "format": "functional"}, "[13]": {"system": "Cell membrane", "experiment": "Disruption of membrane integrity in methicillin-resistant Staphylococcus aureus 3 assessed as appearance of ruptured cell surface at 16 ug/ml incubated for 240 mins by SEM analysis", "format": "subcellular", "conditions": "dose 16.0 µg/ml"}, "[14]": {"system": "Cell membrane", "experiment": "Disruption of membrane integrity in methicillin-resistant Staphylococcus aureus 3 assessed as appearance of uneven cell surface at 16 ug/ml incubated for 240 mins by SEM analysis", "format": "subcellular", "conditions": "dose 16.0 µg/ml"}, "[15]": {"system": "Cell membrane", "experiment": "Disruption of membrane integrity in methicillin-resistant Staphylococcus aureus 3 assessed as increase in intense blue fluorescence at 8 times MIC incubated for 4 hrs by DAPI/PI staining based laser confocal microscopic analysis", "format": "subcellular"}, "[16]": {"system": "Cell membrane", "experiment": "Disruption of membrane integrity in methicillin-resistant Staphylococcus aureus 3 assessed as increase in red fluorescence at 8 times MIC incubated for 4 hrs by DAPI/PI staining based laser confocal microscopic analysis", "format": "subcellular"}, "[17]": {"system": "Cell membrane", "experiment": "Disruption of membrane integrity in methicillin-resistant Staphylococcus aureus 3 assessed as increase in red fluorescence of PI incubated for 2 hrs by SYTO 9/PI staining based flow cytometry analysis", "format": "subcellular", "conditions": "dose 4-64 µg/ml"}, "[18]": {"system": "Staphylococcus aureus", "experiment": "Anti-MRSA activity against methicillin-resistant Staphylococcus aureus 3 incubated for 16 to 18 hrs in presence of 0 to 32 ug/ml phosphatidylglycerol by checkerboard broth dilution method", "format": "functional", "conditions": "time 16-18 hrs"}, "[19]": {"system": "Staphylococcus aureus", "experiment": "Anti-MRSA activity against methicillin-resistant Staphylococcus aureus 3 incubated for 16 to 18 hrs in presence of 0 to 32 ug/ml cardiolipin by checkerboard broth dilution method", "format": "functional", "conditions": "time 16-18 hrs"}, "[20]": {"system": "Staphylococcus aureus", "experiment": "Anti-MRSA activity against methicillin-resistant Staphylococcus aureus 3 incubated for 16 to 18 hrs in presence of 64 ug/ml phosphatidylglycerol by checkerboard broth dilution method (reference value: 1 ug/ml)", "format": "functional", "conditions": "time 16-18 hrs"}, "[21]": {"system": "Staphylococcus aureus", "experiment": "Anti-MRSA activity against methicillin-resistant Staphylococcus aureus 3 incubated for 16 to 18 hrs in presence of 0 to 64 ug/ml peptidoglycan by checkerboard broth dilution method", "format": "functional, organism-based", "conditions": "time 16-18 hrs"}, "[22]": {"experiment": "Toxicity in KM mouse assessed as effect on WBC count at 20 mg/kg, sc administered into middle dorsum and measured after 24 hrs by routine blood test", "format": "organism-based", "conditions": "in vivo"}, "[23]": {"experiment": "Toxicity in KM mouse assessed as effect on RBC count at 20 mg/kg, sc administered into middle dorsum and measured after 24 hrs by routine blood test", "format": "organism-based, Erythrocyte", "conditions": "in vivo"}, "[24]": {"experiment": "Toxicity in KM mouse assessed as effect on hemoglobin level at 20 mg/kg, sc administered into middle dorsum and measured after 24 hrs by routine blood test", "format": "organism-based", "conditions": "in vivo"}, "[25]": {"experiment": "Toxicity in KM mouse assessed as effect on hematocrit level at 20 mg/kg, sc administered into middle dorsum and measured after 24 hrs by routine blood test", "format": "organism-based", "conditions": "in vivo"}, "[26]": {"experiment": "Toxicity in KM mouse assessed as effect on platelet count at 20 mg/kg, sc administered into middle dorsum and measured after 24 hrs by routine blood test", "format": "organism-based", "conditions": "in vivo"}, "[27]": {"experiment": "Toxicity in KM mouse assessed as effect on creatinine level at 20 mg/kg, sc administered into middle dorsum and measured after 24 hrs by routine blood test", "format": "organism-based", "conditions": "in vivo"}, "[28]": {"experiment": "Toxicity in KM mouse assessed as pathological changes in liver at 20 mg/kg, sc administered into middle dorsum and measured after 24 hrs by H and E staining based analysis", "format": "organism-based", "conditions": "in vivo"}, "[29]": {"experiment": "Toxicity in KM mouse assessed as pathological changes in kidneys at 20 mg/kg, sc administered into middle dorsum and measured after 24 hrs by H and E staining based analysis", "format": "organism-based", "conditions": "in vivo"}, "[30]": {"system": "Staphylococcus aureus", "experiment": "Antibacterial activity against methicillin-resistant Staphylococcus aureus 3 infected in KM mouse assessed as reduction in skin lesions/abscesses in subcutaneous tissue at 10 mg/kg administered into skin infection site measured after 24 hrs", "format": "functional, organism-based"}, "[31]": {"system": "Staphylococcus aureus", "experiment": "Antibacterial activity against methicillin-resistant Staphylococcus aureus 3 infected in KM mouse assessed as reduction in bacterial load at infection site by measuring colony forming units at 10 mg/kg administered into skin infection site measured after 24 hrs", "format": "functional"}, "[32]": {"system": "Staphylococcus aureus", "experiment": "Antibacterial activity against methicillin-resistant Staphylococcus aureus 3 infected in KM mouse assessed as reduction in bacterial load at infection site at 5 mg/kg administered into skin infection site measured after 24 hrs relative to control", "format": "functional", "set-up": "scale not given: the % may be the effect or the level left"}, "[33]": {"system": "Staphylococcus aureus", "experiment": "Antibacterial activity against methicillin-resistant Staphylococcus aureus 3 infected in KM mouse assessed as reduction in abscesses on dorsal surface of skin at 5 mg/kg administered into skin infection site measured after 24 hrs", "format": "functional, organism-based"}, "[34]": {"system": "Staphylococcus aureus", "experiment": "Antibacterial activity against methicillin-resistant Staphylococcus aureus 3 infected in KM mouse assessed as reduction in abscesses inside the skin at 5 mg/kg administered into skin infection site measured after 24 hrs", "format": "functional, organism-based"}, "[35]": {"experiment": "Toxicity in KM mouse infected with methicillin-resistant Staphylococcus aureus 3 assessed as liver damage at 5 to 10 mg/kg administered into skin infection site measured after 24 hrs by H and E staining based analysis", "format": "organism-based", "conditions": "in vivo, topical_or_ocular, dose 5-10 mg/kg"}, "[36]": {"experiment": "Toxicity in KM mouse infected with methicillin-resistant Staphylococcus aureus 3 assessed as lung damage at 5 to 10 mg/kg administered into skin infection site measured after 24 hrs by H and E staining based analysis", "format": "organism-based", "conditions": "in vivo, topical_or_ocular, dose 5-10 mg/kg"}, "[37]": {"experiment": "Toxicity in KM mouse infected with methicillin-resistant Staphylococcus aureus 3 assessed as histopathological abnormalities in spleen at 5 to 10 mg/kg administered into skin infection site measured after 24 hrs by H and E staining based analysis", "format": "organism-based", "conditions": "in vivo, topical_or_ocular, dose 5-10 mg/kg"}},
  "note": "Activity calls are given as the source filed them. The rule behind the calls is not given here.",
  "data": [
    {"smiles": "CCCN(CCC)C(=O)C[N+](C)(C)CCCCOc1ccc(/C=C/C(=O)c2c(OC)cc3c(c2O)C=CC(C)(C)O3)cc1.[Br-]", "values": [
      {"measurement": "MIC", "setting": "[1]", "value": 2, "unit": "µg/mL"},
      {"measurement": "MIC", "setting": "[2]", "value": 1, "unit": "µg/mL"},
      {"measurement": "MIC", "setting": "[3]", "value": 1, "unit": "µg/mL"},
      {"measurement": "MIC", "setting": "[4]", "value": 1, "unit": "µg/mL"},
      {"measurement": "MIC", "setting": "[5]", "value": 2, "unit": "µg/mL"},
      {"measurement": "MIC", "setting": "[6]", "value": 2, "unit": "µg/mL"},
      {"measurement": "MIC", "setting": "[7]", "value": 2, "unit": "µg/mL"},
      {"measurement": "HC50 at 1 h", "setting": "[8]", "value": 338, "unit": "µg/mL"},
      {"measurement": "Activity", "setting": "[9]", "value": "Active"},
      {"measurement": "Activity", "setting": "[10]", "value": "Active"},
      {"measurement": "Activity", "setting": "[11]", "value": "Tde"},
      {"measurement": "Activity", "setting": "[12]", "value": "inactive"},
      {"measurement": "Activity", "setting": "[13]", "value": "Active"},
      {"measurement": "Activity", "setting": "[14]", "value": "Active"},
      {"measurement": "Activity", "setting": "[15]", "value": "Active"},
      {"measurement": "Activity", "setting": "[16]", "value": "Active"},
      {"measurement": "Activity", "setting": "[17]", "value": "Dose-Dependent Effect"},
      {"measurement": "MIC", "setting": "[18]", "value": 1, "unit": "µg/mL"},
      {"measurement": "MIC", "setting": "[19]", "value": 1, "unit": "µg/mL"},
      {"measurement": "MIC", "setting": "[20]", "value": 32, "unit": "µg/mL"},
      {"measurement": "Activity", "setting": "[21]", "value": "Active"},
      {"measurement": "Activity", "setting": "[22]", "value": "Non-Toxic"},
      {"measurement": "Activity", "setting": "[23]", "value": "Non-Toxic"},
      {"measurement": "Activity", "setting": "[24]", "value": "Non-Toxic"},
      {"measurement": "Activity", "setting": "[25]", "value": "Non-Toxic"},
      {"measurement": "Activity", "setting": "[26]", "value": "Non-Toxic"},
      {"measurement": "Activity", "setting": "[27]", "value": "Non-Toxic"},
      {"measurement": "Activity", "setting": "[28]", "value": "Non-Toxic"},
      {"measurement": "Activity", "setting": "[29]", "value": "Non-Toxic"},
      {"measurement": "Activity", "setting": "[30]", "value": "Active"},
      {"measurement": "Activity", "setting": "[31]", "value": 4.5, "unit": "log10CFU/g"},
      {"measurement": "Activity", "setting": "[32]", "value": 99.905, "unit": "%"},
      {"measurement": "Activity", "setting": "[33]", "value": "inactive"},
      {"measurement": "Activity", "setting": "[34]", "value": "inactive"},
      {"measurement": "Activity", "setting": "[35]", "value": "Non-Toxic"},
      {"measurement": "Activity", "setting": "[36]", "value": "Non-Toxic"},
      {"measurement": "Activity", "setting": "[37]", "value": "Non-Toxic"}
    ]}
  ]
}
